In PubChem BioAssay (NCI):
Where “and” joins values, the source holds several entries; their conditions need not be identical. Equal entries are not always repeated.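 Each compound was tested at five concentrations against cells in 96-well plates for 48 hours. Abbreviation: GI50, concentration required for 50% inhibition of growth. TGI marks complete inhibition of growth.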

Legend:
Experiment in all cases: NCI tumour cell line growth inhibition, 48 h
786-0 renal = test system: 786-0 renal
A498 renal = test system: A498 renal
A549 NSCLC = test system: A549 NSCLC
ACHN renal = test system: ACHN renal
BT-549 breast = test system: BT-549 breast
CAKI-1 renal = test system: CAKI-1 renal
CCRF-CEM leukemia = test system: CCRF-CEM leukemia
COLO 205 colon = test system: COLO 205 colon
DU-145 prostate = test system: DU-145 prostate
EKVX NSCLC = test system: EKVX NSCLC
HCC-2998 colon = test system: HCC-2998 colon
HCT-116 colon = test system: HCT-116 colon
HCT-15 colon = test system: HCT-15 colon
HL-60(TB) leukemia = test system: HL-60(TB) leukemia
HOP-62 NSCLC = test system: HOP-62 NSCLC
HOP-92 NSCLC = test system: HOP-92 NSCLC
HS 578T breast = test system: HS 578T breast
HT29 colon = test system: HT29 colon
IGROV1 ovarian = test system: IGROV1 ovarian
K-562 leukemia = test system: K-562 leukemia
KM12 colon = test system: KM12 colon
LOX IMVI melanoma = test system: LOX IMVI melanoma
M14 melanoma = test system: M14 melanoma
MALME-3M melanoma = test system: MALME-3M melanoma
MCF7 breast = test system: MCF7 breast
MDA-MB-435 = test system: MDA-MB-435
MDA-N = test system: MDA-N
MOLT-4 leukemia = test system: MOLT-4 leukemia
NCI-H226 lung = test system: NCI-H226 lung
NCI-H23 lung = test system: NCI-H23 lung
NCI-H460 lung = test system: NCI-H460 lung
NCI-H522 lung = test system: NCI-H522 lung
NCI/ADR-RES ovarian = test system: NCI/ADR-RES ovarian
OVCAR-3 ovarian = test system: OVCAR-3 ovarian
OVCAR-4 ovarian = test system: OVCAR-4 ovarian
OVCAR-5 ovarian = test system: OVCAR-5 ovarian
OVCAR-8 ovarian = test system: OVCAR-8 ovarian
PC-3 prostate = test system: PC-3 prostate
RPMI-8226 leukemia = test system: RPMI-8226 leukemia
RXF 393 renal = test system: RXF 393 renal
SF-268 CNS = test system: SF-268 CNS
SF-295 CNS = test system: SF-295 CNS
SF-539 CNS = test system: SF-539 CNS
SK-MEL-2 melanoma = test system: SK-MEL-2 melanoma
SK-MEL-28 melanoma = test system: SK-MEL-28 melanoma
SK-MEL-5 melanoma = test system: SK-MEL-5 melanoma
SK-OV-3 ovarian = test system: SK-OV-3 ovarian
SN12C renal = test system: SN12C renal
SNB-19 CNS = test system: SNB-19 CNS
SNB-75 CNS = test system: SNB-75 CNS
SR leukemia = test system: SR leukemia
SW-620 colon = test system: SW-620 colon
T-47D breast = test system: T-47D breast
UACC-257 melanoma = test system: UACC-257 melanoma
UACC-62 melanoma = test system: UACC-62 melanoma
UO-31 renal = test system: UO-31 renal
MDA-MB-231 breast = test system: MDA-MB-231 breast
TK-10 renal = test system: TK-10 renal
U251 CNS = test system: U251 CNS

Molecule `CCOc1cc(NC(C)=O)ccc1C(=O)NN1C(=O)/C(=C/c2ccco2)N=C1c1ccccc1` has a TGI (786-0 renal) greater than 100 µM, a TGI (A498 renal) greater than 100 µM and a TGI (A549 NSCLC) greater than 100 µM. The TGI (ACHN renal) was greater than 100 µM, the TGI (BT-549 breast) was greater than 100 µM and the TGI (CAKI-1 renal) was greater than 100 µM. The TGI (CCRF-CEM leukemia) was greater than 100 µM, the TGI (COLO 205 colon) was greater than 100 µM and the TGI (DU-145 prostate) was greater than 100 µM. It also gave a TGI (EKVX NSCLC) greater than 100 µM, a TGI (HCC-2998 colon) greater than 100 µM and a TGI (HCT-116 colon) greater than 100 µM. For the same molecule, the TGI (HCT-15 colon) was greater than 100 µM, the TGI (HL-60(TB) leukemia) was greater than 100 µM and the TGI (HOP-62 NSCLC) was greater than 100 µM. The TGI (HOP-92 NSCLC) was greater than 100 µM, the TGI (HS 578T breast) was greater than 100 µM and the TGI (HT29 colon) was greater than 100 µM. It also gave a TGI (IGROV1 ovarian) greater than 100 µM, a TGI (K-562 leukemia) greater than 100 µM and a TGI (KM12 colon) greater than 100 µM. For the same molecule, the TGI (LOX IMVI melanoma) was greater than 100 µM, the TGI (M14 melanoma) was greater than 100 µM and the TGI (MALME-3M melanoma) was greater than 100 µM. The TGI (MCF7 breast) was greater than 100 µM, the TGI (MDA-MB-435) was greater than 100 µM and the TGI (MDA-N) was greater than 100 µM. The TGI (MOLT-4 leukemia) was greater than 100 µM, the TGI (NCI-H226 lung) was greater than 100 µM and the TGI (NCI-H23 lung) was greater than 100 µM. The TGI (NCI-H460 lung) was greater than 100 µM, the TGI (NCI-H522 lung) was greater than 100 µM and the TGI (NCI/ADR-RES ovarian) was greater than 100 µM. It also gave a TGI (OVCAR-3 ovarian) greater than 100 µM, a TGI (OVCAR-4 ovarian) greater than 100 µM and a TGI (OVCAR-5 ovarian) greater than 100 µM. The TGI (OVCAR-8 ovarian) was greater than 100 µM, the TGI (PC-3 prostate) was greater than 100 µM and the TGI (RPMI-8226 leukemia) was greater than 100 µM. It also gave a TGI (RXF 393 renal) greater than 100 µM, a TGI (SF-268 CNS) greater than 100 µM and a TGI (SF-295 CNS) greater than 100 µM. The TGI (SF-539 CNS) was greater than 100 µM, the TGI (SK-MEL-2 melanoma) was greater than 100 µM and the TGI (SK-MEL-28 melanoma) was greater than 100 µM. It also gave a TGI (SK-MEL-5 melanoma) greater than 100 µM, a TGI (SK-OV-3 ovarian) greater than 100 µM and a TGI (SN12C renal) greater than 100 µM. The TGI (SNB-19 CNS) was greater than 100 µM, the TGI (SNB-75 CNS) was greater than 100 µM and the TGI (SR leukemia) was greater than 100 µM. It also gave a TGI (SW-620 colon) greater than 100 µM, a TGI (T-47D breast) greater than 100 µM and a TGI (UACC-257 melanoma) greater than 100 µM. It also gave a TGI (UACC-62 melanoma) greater than 100 µM and a TGI (UO-31 renal) greater than 100 µM.

With `COC(=O)[C@H](Cc1ccccc1)NC(=O)[C@H](Cc1ccccc1)NC(=O)CN1C(=O)[C@@H]2C3C=CC(C3)[C@@H]2C1=O` the TGI (786-0 renal) was 27.2 µM and 28.8 µM, the TGI (A498 renal) was 31.3 µM and 53 µM and the TGI (A549 NSCLC) was 45.9 µM and 44.1 µM. For the same molecule, the TGI (ACHN renal) was 29.7 µM and 30.4 µM, the TGI (BT-549 breast) was 32.1 µM and 30.2 µM and the TGI (CAKI-1 renal) was 30.6 µM and 35.1 µM. For the same molecule, the GI50 (CCRF-CEM leukemia) was 7.9 µM and 19.9 µM, the TGI (CCRF-CEM leukemia) was 39.1 µM and 57.3 µM and the TGI (COLO 205 colon) was 29.7 µM and 30.9 µM. For the same molecule, the TGI (DU-145 prostate) was 39.1 µM and 34.2 µM, the TGI (EKVX NSCLC) was 35.1 µM and 37.3 µM and the TGI (HCC-2998 colon) was 30.8 µM and 31 µM. For the same molecule, the TGI (HCT-116 colon) was 27.3 µM and 30.2 µM, the TGI (HCT-15 colon) was 31.2 µM and 33.1 µM and the TGI (HL-60(TB) leukemia) was 40.8 µM and 33.5 µM. The TGI (HOP-62 NSCLC) was 38.5 µM and 39.8 µM, the TGI (HOP-92 NSCLC) was 33.3 µM and 36.1 µM and the TGI (HS 578T breast) was 38.2 µM and 38 µM. The TGI (HT29 colon) was 38.4 µM and 42.1 µM, the TGI (IGROV1 ovarian) was 25.5 µM and 30.4 µM and the GI50 (K-562 leukemia) was 7.26 µM and 17.5 µM. For the same molecule, the TGI (K-562 leukemia) was 36.2 µM and 42.2 µM, the TGI (KM12 colon) was 33.9 µM and 41.7 µM and the TGI (LOX IMVI melanoma) was 33.3 µM and 32.2 µM. For the same molecule, the TGI (M14 melanoma) was 41.4 µM and 40.4 µM, the TGI (MCF7 breast) was 34.1 µM and 31.7 µM and the TGI (MDA-MB-231 breast) was 31.5 µM and 32.4 µM. For the same molecule, the TGI (MDA-MB-435) was 28.7 µM and 32 µM, the TGI (MDA-N) was 30.2 µM and 30.9 µM and the TGI (MOLT-4 leukemia) was 5.2 µM and 8.67 µM. For the same molecule, the TGI (NCI-H226 lung) was 38.5 µM and 39.1 µM, the TGI (NCI-H23 lung) was 32.1 µM and 33 µM and the TGI (NCI-H460 lung) was 42.6 µM and 46.3 µM. For the same molecule, the TGI (NCI-H522 lung) was 27.8 µM and 31.8 µM, the TGI (NCI/ADR-RES ovarian) was 53.9 µM and > 100 µM and the TGI (OVCAR-3 ovarian) was 33.1 µM and 37 µM. The TGI (OVCAR-4 ovarian) was 31.2 µM and 37.5 µM, the TGI (OVCAR-5 ovarian) was 43.1 µM and 41.7 µM and the TGI (OVCAR-8 ovarian) was 27.9 µM and 33.8 µM. For the same molecule, the TGI (PC-3 prostate) was 29 µM and 30 µM, the TGI (RPMI-8226 leukemia) was 38.3 µM and 52 µM and the TGI (RXF 393 renal) was 36.2 µM and 35 µM. For the same molecule, the TGI (SF-268 CNS) was 26.3 µM and 31.5 µM, the TGI (SF-295 CNS) was 35.5 µM and 36.6 µM and the TGI (SF-539 CNS) was 32 µM and 33.3 µM. The TGI (SK-MEL-2 melanoma) was 33 µM and 34.5 µM, the TGI (SK-MEL-28 melanoma) was 35 µM and 35.7 µM and the TGI (SK-MEL-5 melanoma) was 28.3 µM and 32.1 µM. For the same molecule, the TGI (SK-OV-3 ovarian) was 31.7 µM, the TGI (SN12C renal) was 32.9 µM and 30.6 µM and the TGI (SNB-19 CNS) was 36.6 µM and 39.9 µM. For the same molecule, the TGI (SNB-75 CNS) was 34 µM and 33.7 µM, the TGI (SW-620 colon) was 40.8 µM and 48.5 µM and the TGI (T-47D breast) was 47.2 µM and 49 µM. The TGI (TK-10 renal) was 31.2 µM and 38.6 µM, the TGI (U251 CNS) was 30 µM and 33.2 µM and the TGI (UACC-257 melanoma) was 30.9 µM and 33.6 µM. The TGI (UACC-62 melanoma) was 30 µM and 30.2 µM and the TGI (UO-31 renal) was 42.3 µM and 32.1 µM.
